Paper PMC8623647 (Pharmaceuticals, 2021)
Several values for one entry are separate records, joined by “and”; a condition that tells them apart may be missing. Equal entries are not always repeated. Entries after “also recorded” stand apart in the source; their conditions may differ. Where two headings read alike, the source gives them in different places.

How the values were obtained:
recombinant human MAO-A = molecular target: T1, recombinant human MAO-A (Homo sapiens, UniProt P21397); assay: MAO-A enzyme inhibition (kynuramine substrate, 316 nm); conditions: for remaining activity at 10 µM: read-out: Residual Activity at 10 µM (%) MAO-A
T1 sequence (P21397 1-527): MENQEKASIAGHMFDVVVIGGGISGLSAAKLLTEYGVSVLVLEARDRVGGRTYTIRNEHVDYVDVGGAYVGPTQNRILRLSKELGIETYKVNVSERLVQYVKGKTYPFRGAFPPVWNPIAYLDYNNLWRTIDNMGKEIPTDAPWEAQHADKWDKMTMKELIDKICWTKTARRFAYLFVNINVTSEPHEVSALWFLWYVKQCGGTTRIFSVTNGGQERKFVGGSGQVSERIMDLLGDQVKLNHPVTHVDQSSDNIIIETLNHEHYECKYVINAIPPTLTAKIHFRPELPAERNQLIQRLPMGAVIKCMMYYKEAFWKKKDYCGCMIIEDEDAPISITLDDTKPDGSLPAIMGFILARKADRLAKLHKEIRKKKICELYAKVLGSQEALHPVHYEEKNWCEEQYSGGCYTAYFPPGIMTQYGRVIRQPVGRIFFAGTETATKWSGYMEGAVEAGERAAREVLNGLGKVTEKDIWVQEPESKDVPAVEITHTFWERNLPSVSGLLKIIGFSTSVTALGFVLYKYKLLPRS
Procedure: (§4) MAO activity assays were performed using recombinant human MAO-A or MAO-B.
(§5) IC50 values were determined by measuring residual enzyme activities.

MAO-B [1] = molecular target: T2, MAO-B (Homo sapiens, UniProt P27338); assay: MAO-B enzyme inhibition (benzylamine substrate, 250 nm); conditions: for SI (hMAO-B selectivity index): IC50(hMAO-A) divided by IC50(hMAO-B); for remaining activity at 10 µM: read-out: Residual Activity at 10 µM (%) MAO-B; for Times more potent than the reference drug lazabemide (MAO-B) / Times more potent than pargyline (MAO-B): ratio of MAO-B IC50 values
T2 sequence (P27338 1-520): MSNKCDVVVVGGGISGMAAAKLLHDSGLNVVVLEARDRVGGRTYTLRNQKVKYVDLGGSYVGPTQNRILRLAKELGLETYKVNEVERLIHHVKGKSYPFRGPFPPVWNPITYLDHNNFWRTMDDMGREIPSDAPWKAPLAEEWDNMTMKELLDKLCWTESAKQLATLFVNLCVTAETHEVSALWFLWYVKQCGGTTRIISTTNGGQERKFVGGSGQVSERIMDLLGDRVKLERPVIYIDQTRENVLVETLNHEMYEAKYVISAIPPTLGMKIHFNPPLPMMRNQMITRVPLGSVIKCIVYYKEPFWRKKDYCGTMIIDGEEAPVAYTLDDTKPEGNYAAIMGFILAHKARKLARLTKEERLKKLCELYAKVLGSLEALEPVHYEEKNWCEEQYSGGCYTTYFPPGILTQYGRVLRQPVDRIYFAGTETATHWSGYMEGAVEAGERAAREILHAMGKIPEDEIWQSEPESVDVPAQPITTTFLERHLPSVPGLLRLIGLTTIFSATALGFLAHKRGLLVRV
Procedure: as §4, §5

[2] = BBB permeation by parallel artificial membrane permeability assay (PAMPA); format: in vitro ADME; conditions: for Prediction (BBB permeation): PAMPA-BBB class from Pe; for Blood-brain barrier permeability in words: PAMPA; for Papp: read-out: Experimental Pe
Text: The CNS bioavailability of the lead candidates was further ascertained by PAMPA method [31].

[3] = design: method as in PMID 12667689; conditions: PAMPA-BBB ref 31; cited from earlier work
MAO-B [4] = system: MAO-B; design: method as in PMID 28577983; conditions: methoxylated chalcones previously reported ref 30; cited from earlier work
MAO-B [5] = molecular target: T2, MAO-B; assay: Kinetics study of MAO-B inhibition (Lineweaver-Burk and secondary plots); format: biochemical
Procedure: Kinetic studies on MAO-B inhibitions were performed on TM1 and TM8.

MAO-B [6] = molecular target: T2, MAO-B; assay: Reversibility of MAO-B inhibition by dialysis; format: biochemical; conditions: for MAO-B activity of dialyzed sample (AD): after dialysis; for MAO-B activity of dialyzed sample (AD) / MAO-B activity of undialyzed sample (AU): test compounds […], lazabemide 0.20 µM, pargyline 0.30 µM; for Reversibility of MAO-B inhibition: dialysis-based method; for MAO-B activity of undialyzed sample (AU): preincubated 30 min
Procedure: The reversibilities of MAO-B inhibitions by TM1 and TM8 were assessed by dialysis. […] Reversibility patterns were determined by comparing the activities of dialyzed (AD) and undialyzed (AU) samples.

[7] = Cytotoxicity by MTT assay; format: cell-based, African Green Monkey; conditions: African green monkey, Vero cells (kidney); Vero cells treated at effective concentrations; read-out: Cells remaining viable
Procedure: (§1) African Green Monkey kidney cells (VERO cells) were used to evaluate the cytotoxic effects of TM1 and TM8. Cells were incubated with different doses (1 µg/mL to 500 µg/mL) of the two compounds for 48 h, and relative cell viabilities were determined by MTT assay.
(§2) The cytotoxicities and ROS quenching abilities of the two lead compounds (TM1 and TM8) were evaluated as previously described.
(§3) Figure 4 Effect of TM1 on Vero cell viability. (a) cell viability treated with TM1; (b) dose-response curve; (c) phase contrast microscope images of Vero cells treated with different concentrations of TM1. Cells were treated with TM1 for 48 h and cell viabilities were assessed by MTT assay as described in Section 4.
as §3, with “Figure 5” for “Figure 4”, “of TM8” for “of TM1”, “with TM8;” for “with TM1;”, “of TM8.” for “of TM1.”, “with TM8” for “with TM1”

Vero cells [8] = assay: Cytotoxicity by MTT assay; format: cell-based, African Green Monkey; conditions: 48 h, MTT assay; for IC50: Chlorocebus sabaeus, Vero, read-out: IC50 for Vero cell viability; for Concentrations resulting in high viability (>90%): Vero cells
Procedure: as §1, §2, §3
as §3, with “Figure 5” for “Figure 4”, “of TM8” for “of TM1”, “with TM8;” for “with TM1;”, “of TM8.” for “of TM1.”, “with TM8” for “with TM1”

Vero cells [9] = assay: ROS assay (H2O2-induced ROS levels); format: cell-based, African Green Monkey; conditions: compound at its IC50 value, exogenous H2O2
Procedure: ROS increase vulnerability to neuronal damage by causing oxidative damage in the brain during neurodegenerative diseases.
as §2
Figure 6 Effects of TM1 (a) and TM8 (b) on H2O2-induced ROS levels. Vero cells (1 × 10^6 cells/mL) were pre-incubated with 100 μg/mL of 30% H2O2 and ROS production was evaluated immediately as described in Section 4.

| Compound | IC50 (recombinant human MAO-A) [µM] | remaining activity at 10 µM (recombinant human MAO-A) [%] | IC50 (MAO-B [1]) [µM] | SI (hMAO-B selectivity index) (MAO-B [1]) | remaining activity at 10 µM (MAO-B [1]) [%] | Times more potent than the reference drug lazabemide (MAO-B) (MAO-B [1]) [times] | Prediction (BBB permeation) [2] | also measured |
| --- | --- | --- | --- | --- | --- | --- | --- | --- |
| CN1C(C(=O)Nc2ccccn2)=C(O)c2ccccc2S1(=O)=O [Piroxicam, reference compound] |  |  |  |  |  |  | CNS± (CNS± (BBB permeation uncertain): Pe (10^−6 cm·s^−1) from 2.00 to 4.00) | Experimental Pe ([2]; PAMPA-BBB): 2.44 ± 0.26 ×10^−6 cm·s^−1; Bibliography Pe [3]: 2.5 ×10⁻⁶ cm/s |
| COc1ccc(C(=O)/C=C/c2ccc(Cl)cc2)cc1 [Compound C8] |  |  |  |  |  |  |  | SI for MAO-B (MAO-B [4]): 3.89 |
| CC(=O)[C@H]1CC[C@H]2[C@@H]3CCC4=CC(=O)CC[C@]4(C)[C@H]3CC[C@]12C [Progesterone, reference compound] |  |  |  |  |  |  | CNS+ (CNS+ (high BBB permeation predicted): Pe (10^−6 cm·s^−1) > 4.00) |  |

Continued, in another order:

| IC50 (recombinant human MAO-A) [µM] | remaining activity at 10 µM (recombinant human MAO-A) [%] | IC50 (MAO-B [1]) [µM] | SI (hMAO-B selectivity index) (MAO-B [1]) | remaining activity at 10 µM (MAO-B [1]) [%] | Times more potent than the reference drug lazabemide (MAO-B) (MAO-B [1]) [times] | Compound | Prediction (BBB permeation) [2] | also measured |
| --- | --- | --- | --- | --- | --- | --- | --- | --- |
| 5.91 ± 0.87 | 47.9 ± 3.7 | 0.12 ± 0.011 | 49.3 | 1.6 ± 1.1 |  | CSc1ccc(C(=O)/C=C/c2ccc(N(C)C)cc2)cc1 [TM5] |  |  |
| 6.71 ± 0.75 | 49.4 ± 8.7 | 0.13 ± 0.005 | 51.6 | -9.5 |  | CCc1ccc(/C=C/C(=O)c2ccc(SC)cc2)cc1 [TM6] |  |  |
| 12 ± 0.99 | 71.6 ± 3.8 | 0.058 ± 0.001 | 206.9 | 14.7 ± 2.8 | 1.1 | CSc1ccc(C(=O)/C=C/c2ccc(C)cc2)cc1 [TM4] |  |  |
| 13.8 ± 0.05 | 62.6 ± 9.7 | 0.017 ± 0.003 | 812 and 811.8 | 13.2 ± 0.7 | 3.7 | CSc1ccc(C(=O)/C=C/c2ccccc2)cc1 [TM1] | CNS+ (CNS+ (high BBB permeation predicted): Pe (10^−6 cm·s^−1) > 4.00) | Inhibitor type for MAO-B (MAO-B [5]; Lineweaver-Burk plots): competitively inhibited MAO-B; also recorded: competitive; Ki (MAO-B [5]; from secondary plots of slopes vs. inhibitor concentrations): 0.011 ± 0.001 µM; MAO-B activity of dialyzed sample (AD) (MAO-B [6]): 68.1%; Reversibility of MAO-B inhibition (MAO-B [6]): reversible MAO-B inhibitors; MAO-B activity of undialyzed sample (AU) (MAO-B [6]): 24.9%; viability at 48 h [7]: > 90%; IC50 (Vero cells [8]; converted from µg/mL): 948 µM; IC50 (Vero cells [8]): 242 µg/mL; Concentrations resulting in high viability (>90%) (Vero cells [8]): < 250 µg/mL; Concentrations resulting in high viability (>90%) (Vero cells [8]; converted from µg/mL): < 983.1 µM; Effect on H2O2-induced intracellular ROS levels (Vero cells [9]): significantly reduced reactive oxygen species (ROS) levels; also recorded: appreciably lower ROS levels; also recorded: mitigated H2O2-induced increases in ROS levels; Blood-brain barrier permeability in words [2]: high blood-brain barrier permeabilities; Papp ([2]; PAMPA-BBB): 15.5 ± 0.33 ×10⁻⁶ cm/s; Times more potent than pargyline (MAO-B) (MAO-B [1]): 1.6 times |
| 8.82 ± 0.09 | 44.6 ± 1.9 | 0.088 ± 0.011 | 100.2 | 6.9 |  | COc1ccc(/C=C/C(=O)c2ccc(SC)cc2)cc1 [TM3] |  |  |
| 48.6 ± 3.44 | 77.4 ± 8.2 | 0.01 ± 0.005 |  | 4.1 ± 0.5 | 6.3 | CSc1ccc(C(=O)/C=C/c2ccc(Cl)cc2)cc1 [TM8] | CNS+ (CNS+ (high BBB permeation predicted): Pe (10^−6 cm·s^−1) > 4.00) | MAO-B activity of dialyzed sample (AD) (MAO-B [6]): 69.3%; Reversibility of MAO-B inhibition (MAO-B [6]): reversible MAO-B inhibitors; MAO-B activity of undialyzed sample (AU) (MAO-B [6]): 33.1%; viability at 48 h [7]: > 90%; IC50 (Vero cells [8]; converted from µg/mL): 402 µM; IC50 (Vero cells [8]): 116 µg/mL; Effect on H2O2-induced intracellular ROS levels (Vero cells [9]): significantly reduced reactive oxygen species (ROS) levels; also recorded: appreciably lower ROS levels; also recorded: mitigated H2O2-induced increases in ROS levels; Blood-brain barrier permeability in words [2]: high blood-brain barrier permeabilities; Papp ([2]; PAMPA-BBB): 16.3 ± 0.26 ×10⁻⁶ cm/s; Times more potent than pargyline (MAO-B) (MAO-B [1]): 2.8 times |
